Structures are written as SMILES.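 Following 48 hours of exposure in 96-well plates, responses at five concentrations were used to interpolate endpoints linearly. The concentration for 50% growth inhibition is given as GI50. At the TGI there is no net growth.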

Test systems include SW-620 colon; U251 CNS; OVCAR-5 ovarian; IGROV1 ovarian; MALME-3M melanoma; ACHN renal; A549 NSCLC; HCT-15 colon; HL-60(TB) leukemia; UACC-62 melanoma.
What all share (assay): DTP human tumour cell line panel, 48 h

Take `Cn1c(N)cc(=O)nc1N`: the concentration for total growth inhibition (TGI) with SW-620 colon, with U251 CNS, in the assay with OVCAR-5 ovarian, in the assay with IGROV1 ovarian, with MALME-3M melanoma and in the assay on ACHN renal was over 100 µM throughout. The TGI with A549 NSCLC, in the assay with HCT-15 colon, in the assay with HL-60(TB) leukemia and in the assay with UACC-62 melanoma was over 100 µM throughout.
Regarding `C/C(=C1/N=C(c2ccccc2)OC1=O)c1cccs1`, the TGI with SW-620 colon, in the assay with U251 CNS, with OVCAR-5 ovarian, in the assay on IGROV1 ovarian, with MALME-3M melanoma and in the assay on ACHN renal was over 100 µM each time. Also, the total growth inhibition concentration (TGI) with A549 NSCLC, with HCT-15 colon, in the assay with HL-60(TB) leukemia and in the assay on UACC-62 melanoma was over 100 µM each time.
On to `CCN(CC)CCC(CNc1c2ccc(Cl)cc2nc2ccc(OC)cc12)c1ccccc1` (stereo not given), for which the GI50 (commonly the concentration that inhibits growth by half) with SW-620 colon was 0.538 µM; in the assay with U251 CNS, 1.56 µM; in the assay on OVCAR-5 ovarian, 1.94 µM; with IGROV1 ovarian, 1.21 µM; in the assay with MALME-3M melanoma it was 1.87 µM; in the assay on ACHN renal it was 1.05 µM. The GI50 in the assay on A549 NSCLC is 1.51 µM; in the assay with HCT-15 colon, 0.902 µM; with HL-60(TB) leukemia, 1.87 µM; in the assay on UACC-62 melanoma, 1.58 µM. The TGI (in general, the concentration at which net growth stops) in the assay with SW-620 colon is 2.15 µM; in the assay with U251 CNS, 3.21 µM; in the assay on OVCAR-5 ovarian, 5.64 µM; in the assay with IGROV1 ovarian, 5.11 µM; in the assay with MALME-3M melanoma, 3.56 µM; with ACHN renal it was 3.19 µM. Also, the TGI with A549 NSCLC is 3.49 µM; with HCT-15 colon, 4.33 µM; with HL-60(TB) leukemia it was 4.71 µM; with UACC-62 melanoma, 3.06 µM.
Turning to `CN(C)c1ccc(/C=C/C(=O)c2ccc(Nc3nc(Nc4ccc(F)cc4)nc(Nc4ccc(Cl)cc4)n3)cc2)cc1`, the GI50 is 6.79 µM in the assay on SW-620 colon; 7.66 µM in the assay on U251 CNS; 20.3 µM in the assay on OVCAR-5 ovarian; 3.02 µM in the assay with IGROV1 ovarian; 10.7 µM in the assay with MALME-3M melanoma; 6.13 µM in the assay on ACHN renal. In addition, the GI50 is 5.03 µM with A549 NSCLC, 4.66 µM in the assay on HCT-15 colon, 1.75 µM with HL-60(TB) leukemia and 14 µM in the assay with UACC-62 melanoma. Besides, the concentration for total growth inhibition (TGI) was 33.6 µM in the assay on SW-620 colon; 70.6 µM with U251 CNS; over 100 µM with OVCAR-5 ovarian; 22.1 µM in the assay on IGROV1 ovarian; 33.8 µM in the assay with MALME-3M melanoma; over 100 µM in the assay with ACHN renal. For the same molecule, the total growth inhibition concentration (TGI) in the assay on A549 NSCLC is 35.1 µM; with HCT-15 colon it was over 100 µM; in the assay with HL-60(TB) leukemia it was 5.34 µM; in the assay with UACC-62 melanoma, 37.9 µM.
For the molecule `CN1CCN(Cc2ccc(NC(=O)c3cncc(C#Cc4c(N)ncc5ccc(F)cc45)c3)cc2C(F)(F)F)CC1`, the GI50 in the assay on SW-620 colon was 0.206 µM; with U251 CNS, 1.05 µM; with OVCAR-5 ovarian it was 0.524 µM; in the assay on IGROV1 ovarian, 0.369 µM; in the assay on MALME-3M melanoma, 0.166 µM; in the assay on ACHN renal it was 0.562 µM. Further, the GI50 was 0.96 µM in the assay on A549 NSCLC, 0.487 µM in the assay with HCT-15 colon, 0.0758 µM in the assay with HL-60(TB) leukemia and 0.64 µM in the assay with UACC-62 melanoma. For the same molecule, the TGI with SW-620 colon came to 1.13 µM; in the assay on U251 CNS, 4 µM; in the assay on OVCAR-5 ovarian it was 1.27 µM; in the assay with IGROV1 ovarian, 6.43 µM; with MALME-3M melanoma it was 0.743 µM; with ACHN renal it was 1.27 µM. Moreover, the total growth inhibition concentration (TGI) with A549 NSCLC was determined as 6.21 µM; in the assay on HCT-15 colon, 6.85 µM; in the assay on HL-60(TB) leukemia, 1.98 µM; in the assay with UACC-62 melanoma, 1.81 µM.
In the case of `COC(=O)[C@@H](C)C[C@H](Cc1ccccc1)NC(=O)c1cccc([C@@H](C[C@H](C(C)C)N(C)C(=O)[C@@H](NC(=O)[C@H]2CCCCN2C)C(C)C)OC(C)=O)n1`, the GI50 in the assay with SW-620 colon is under 0.00167 µM; in the assay with U251 CNS, under 0.00167 µM; in the assay on OVCAR-5 ovarian it was 0.00772 µM; in the assay on IGROV1 ovarian it was under 0.00167 µM; in the assay with MALME-3M melanoma it was under 0.00167 µM; with ACHN renal, under 0.00167 µM. Also, the 50% growth inhibitory concentration (GI50) in the assay on A549 NSCLC is 0.00591 µM; in the assay on HCT-15 colon, 0.00507 µM; in the assay on HL-60(TB) leukemia, under 0.00167 µM; in the assay with UACC-62 melanoma, under 0.00167 µM. For the same molecule, the total growth inhibition concentration (TGI) in the assay on SW-620 colon, with U251 CNS, in the assay with OVCAR-5 ovarian, with IGROV1 ovarian, with MALME-3M melanoma and in the assay on ACHN renal was over 16.7 µM in each case. Also, the TGI in the assay with A549 NSCLC was over 16.7 µM; with HCT-15 colon, over 16.7 µM; in the assay on HL-60(TB) leukemia it was 0.00181 µM; with UACC-62 melanoma it was over 16.7 µM.
As to `COc1ccc(-c2nccn2-c2cc(OC)c(OC)c(OC)c2)cc1`, the GI50 with SW-620 colon was 1.34 µM; with U251 CNS, 3.85 µM; in the assay with OVCAR-5 ovarian, 10.8 µM; in the assay with IGROV1 ovarian, 1.79 µM; with MALME-3M melanoma it was 1.96 µM; in the assay with ACHN renal, 6.07 µM. Moreover, the GI50 with A549 NSCLC was 4.94 µM; with HCT-15 colon, 1.16 µM; in the assay on HL-60(TB) leukemia, 25.4 µM; in the assay with UACC-62 melanoma, 0.675 µM. In addition, the TGI in the assay with SW-620 colon is over 100 µM; with U251 CNS, over 100 µM; in the assay on OVCAR-5 ovarian, over 79.4 µM; in the assay on IGROV1 ovarian, over 100 µM; in the assay on MALME-3M melanoma, over 100 µM; with ACHN renal, over 100 µM. For the same molecule, the concentration for total growth inhibition (TGI) was over 100 µM in the assay with A549 NSCLC, over 100 µM with HCT-15 colon, over 100 µM in the assay on HL-60(TB) leukemia and 24.1 µM in the assay with UACC-62 melanoma.
For the molecule `O=C1C2=C(Nc3cc([N+](=O)[O-])ccc3N2)OC1c1c[nH]c2ccc(COc3ccccc3)cc12` (stereo not given), the TGI in the assay on SW-620 colon, with U251 CNS, in the assay with OVCAR-5 ovarian, in the assay with IGROV1 ovarian, with MALME-3M melanoma and in the assay with ACHN renal was over 100 µM in each case. Further, the TGI with A549 NSCLC was over 100 µM; in the assay on HCT-15 colon, over 100 µM; with HL-60(TB) leukemia, 17.7 µM; with UACC-62 melanoma, over 100 µM.

Values taken from PubChem BioAssay (NCI).
